Our source for the Ki values is BindingDB's records for PubMed 1706470 (Abbott Laboratories, 1991).

The test concerns the target T1, Gastrin/cholecystokinin type B receptor (Cavia porcellus, UniProt H0VZC5).
T1 sequence (H0VZC5 whole entry): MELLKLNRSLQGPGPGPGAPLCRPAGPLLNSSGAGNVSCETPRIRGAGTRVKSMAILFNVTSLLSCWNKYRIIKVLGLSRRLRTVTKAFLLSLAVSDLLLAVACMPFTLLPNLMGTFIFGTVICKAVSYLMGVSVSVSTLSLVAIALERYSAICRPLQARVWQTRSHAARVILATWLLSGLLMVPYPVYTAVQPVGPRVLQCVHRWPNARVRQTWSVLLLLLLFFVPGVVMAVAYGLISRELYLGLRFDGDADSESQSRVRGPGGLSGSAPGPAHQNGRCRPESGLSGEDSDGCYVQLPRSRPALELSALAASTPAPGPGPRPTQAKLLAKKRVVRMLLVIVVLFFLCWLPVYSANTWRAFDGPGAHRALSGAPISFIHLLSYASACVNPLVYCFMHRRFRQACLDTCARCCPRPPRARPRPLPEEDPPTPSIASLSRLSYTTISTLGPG

`CC(C)(C)OC(=O)NC(Cc1c[nH]c2ccccc12)C(=O)N(C(=O)C(N)Cc1ccccc1)C(=O)C(CC(=O)O)NC(=O)C(N)CCCCNC(=O)OCc1ccccc1` (stereo unspecified) [A-57282]: the affinity corresponds to a Ki of 510 nM.
